The source of these data is publication PMC9090415, “Discovery of small molecule inhibitors of Plasmodium falciparum apicoplast DNA polymerase” (Journal of Enzyme Inhibition and Medicinal Chemistry, 2022).

Broadly, the IC50 is the midpoint of a concentration-inhibition curve.

In the experiment the target is P. falciparum apicoplast DNA polymerase (Pf-apPOL) (Plasmodium falciparum, UniProt Q8ILY1). Kind of experiment: Fluorescence-based high-throughput DNA polymerase assay (molecular beacon), primary screen and dose-response. The experiment is classed as biochemical. To be noted: for DNA Pol: 90 min, 10 µM; for IC50: supplemental file 2, sheet IC50 nontoxic compounds, Pf-apPOL. On the procedure:
The HT assay employs a molecular beacon, a stem-loop DNA template with a Cy3 dye and the Black Hole Quencher on the 3′ and 5′ ends of the DNA, respectively. Pf-apPOL concentration is based on a calculated absorptivity of ε280 = 56750 M^−1 cm^−1. Reactions were carried out at 25 °C, using Corning 3575 […] (well-volume, 20 µL). Assays testing for compound inhibition composed of reaction buffer (pH 7.9 in 50 mM potassium acetate, 20 mM Tris-acetate and 10 mM magnesium acetate), Pf-apPOL (20 nM), DNA substrate (20 nM), dNTPs (6 µM), and compound (10 µM in DMSO). The DNA and nucleotide substrates (dNTPs) were at concentrations of 20 nM and 6 µM, respectively, in the assay. Pf-apPOL was incubated in the reaction buffer with dNTPs and the compound of interest (10 µM, in the assay) at 25 °C for 10 min. The DNA substrate was then added and the reaction was allowed to proceed for 90 min at 25 °C.
Each assay plate contained 16 negative controls (no Pf-apPOL, DMSO present) and 16 positive controls (Pf-apPOL present, no DMSO). The fluorescence of each well was determined using a BioTek Synergy Neo fluorescence plate reader using excitation and emission wavelengths of 555 and 570 nm, respectively.
In the above, Min is the average of fluorescence emission of the negative controls (substrate only), Max the average fluorescence emission from the positive controls (enzyme + substrate), and Test the emission from the assays in the presence of compounds (enzyme + compound + substrates). […] […] The IC50 of each compound was determined using Equation (2): (2) IC50= Vmax/(1+ (I/IC50)^n)
In the above, n measures cooperativity, with n > 1 indicating synergistic binding of more than a single molecule of the compound.
To identify apPOL inhibitors we utilised our previously developed high-throughput DNA polymerase assay. The HT assay is based on a molecular beacon DNA template that forms a stem-loop with a Cy3 dye and the Black Hole Quencher on the 3′ and 5′ ends of the DNA, respectively. DNA polymerase activity extends an annealed primer through the stem region, displacing the fluorophore from the quencher, thereby increasing its fluorescence (Figure 1(A)). The assay accurately recapitulates the kinetic behaviour of apPOL, as measured through more conventional low-throughput gel-based assays. The Z′ factor for the assay described here was 0.9 across all plates (data not shown).
Figure 1. High-throughput screening. (A) The fluorescent-based DNA polymerase assay used to screen the compound libraries. The DNA template strand is a hairpin loop with a primer annealed to the loop. The 3’ end of the primer is 11 bases away from the 6 bp duplex. Strand displacement activity of the DNA polymerase separates the Cy3 dye from the Black hole quencher leading to an increase in fluorescent signal. (B) The high-throughput assay workflow. The DNA polymerase is incubated with […] compound for 10 min prior to addition of the hairpin substrate. The reaction is quenched at 3 different time points and the fluorescent signal is measured and % inhibition is determined using the provided equation.

[1] abbreviates: primary screen value by plate and well.
[2] abbreviates: primary screen value of the 186 hits, unit not given.

P. falciparum apicoplast DNA polymerase (Pf-apPOL), sequence (Q8ILY1 entry or part of it): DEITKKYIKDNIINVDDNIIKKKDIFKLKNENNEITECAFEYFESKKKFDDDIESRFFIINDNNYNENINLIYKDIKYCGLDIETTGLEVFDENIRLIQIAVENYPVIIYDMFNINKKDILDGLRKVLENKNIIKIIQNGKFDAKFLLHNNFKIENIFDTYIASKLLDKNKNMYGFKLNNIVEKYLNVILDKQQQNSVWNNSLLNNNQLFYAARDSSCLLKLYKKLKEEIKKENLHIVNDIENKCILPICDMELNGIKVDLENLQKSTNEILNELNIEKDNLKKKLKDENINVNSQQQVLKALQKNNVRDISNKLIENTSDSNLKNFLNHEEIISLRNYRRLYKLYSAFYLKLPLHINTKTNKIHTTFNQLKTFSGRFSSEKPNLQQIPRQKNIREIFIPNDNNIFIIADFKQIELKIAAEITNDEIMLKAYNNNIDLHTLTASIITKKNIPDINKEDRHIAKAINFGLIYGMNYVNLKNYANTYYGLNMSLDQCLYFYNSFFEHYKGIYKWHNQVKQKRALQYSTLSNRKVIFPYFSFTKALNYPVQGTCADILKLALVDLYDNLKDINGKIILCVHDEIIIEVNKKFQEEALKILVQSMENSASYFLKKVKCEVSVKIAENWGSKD

`O=C(Nc1cccc(Cl)c1)Nc1nnc(-c2ccncc2)s1` [KU0022348]: the “% inhibition Apo pol 10'” value was 12.66% (DRC-1, concentration 2.5); -6.2957% (DRC-1, concentration 5); 19.819% (DRC-1, concentration 10); 75.3838% (DRC-1, concentration 20); 88.0392% (DRC-1, concentration 40); 86.8157% (DRC-1, concentration 80). For the same molecule, the “% inhibition Apol 90'” value is 6.139% (DRC-1, concentration 2.5); -8.679% (DRC-1, concentration 5); 12.9186% (DRC-1, concentration 10); 70.4338% (DRC-1, concentration 20); 84.2961% (DRC-1, concentration 40); 86.1912% (DRC-1, concentration 80). For the same molecule, the “% inhibition apPOL 180'” value reads like this: (DRC-1, concentration 2.5) 0.3318%; (DRC-1, concentration 5) -11.6465%; (DRC-1, concentration 10) 5.454%; (DRC-1, concentration 20) 60.8254%; (DRC-1, concentration 40) 80.4807%; (DRC-1, concentration 80) 84.4697%. Also, the “% inhibition apPOL 180'” value came to 6% (DRC-2, concentration 2.5); 30% (DRC-2, concentration 5); 58% (DRC-2, concentration 10); 60% (DRC-2, concentration 20); 70% (DRC-2, concentration 40); 65% (DRC-2, concentration 80). For the same molecule, where the note is “conc. 80, DRC-2”, the “% inhibition apPOL 180'” value is listed as 65%. In addition, the “% inhibition Apo pol 5'” value is 16% (DRC-2, concentration 2.5); 32% (DRC-2, concentration 5); 46% (DRC-2, concentration 10); 47% (DRC-2, concentration 20); 48% (DRC-2, concentration 40); 40% (DRC-2, concentration 80). Also, the “% inhibition Apo pol 5'” value (conc. 2.5, DRC-2) stood at 16%. For the same molecule, the “% inhibition Apol 40'” value by setting is: (DRC-2, concentration 2.5) 18%; (DRC-2, concentration 5) 42%; (DRC-2, concentration 10) 64%; (DRC-2, concentration 20) 66%; (DRC-2, concentration 40) 71%; (DRC-2, concentration 80) 57%. Further, where the note is “conc. 10, DRC-2”, the “% inhibition Apol 40'” value came to 64%. Moreover, the “% inhibition ApPOL 90'” value (DRC-2, concentration 2.5) worked out at 16%; the “% inhibition ApPOL 90'” value (DRC-2, concentration 5) is listed as 41%; the “% inhibition ApPOL 90'” value (DRC-2, concentration 10) was 65%; the “% inhibition ApPOL 90'” value (DRC-2, concentration 20) is 67%; the “% inhibition ApPOL 90'” value (DRC-2, concentration 40) is on record as 73%; the “% inhibition ApPOL 90'” value (DRC-2, concentration 80) was 64%. For the same molecule, the “% inhibition ApPOL 90'” value is, setting by setting: (conc. 2.5, DRC-2) 16%; (conc. 10, DRC-2) 65%; (conc. 80, DRC-2) 64%. In addition, the “DNA Pol” value was determined as 61 under setting [1] and 61 under setting [2].
For `CCN1C(=O)C(=Cc2cccc(OC)c2O)SC1=S` [Molecule 78], the IC50 is 35 µM.
Take `COc1cc(Cl)c(C)cc1NC(=O)Cn1ccc2c(=O)[nH]ccc21` [Molecule 33, COc1cc(Cl)c(cc1NC(=O)Cn1ccc2c1cc[nH]c2=O)C]: the “% inhibition Apo pol 10'” value is listed as 1.493% (DRC-1, concentration 2.5); 13.6047% (DRC-1, concentration 5); 50.6447% (DRC-1, concentration 10); 68.9678% (DRC-1, concentration 20); 82.7027% (DRC-1, concentration 40); 78.8716% (DRC-1, concentration 80). Also, the “% inhibition Apol 90'” value reads like this: (DRC-1, concentration 2.5) -1.924%; (DRC-1, concentration 5) 4.488%; (DRC-1, concentration 10) 37.9384%; (DRC-1, concentration 20) 62.017%; (DRC-1, concentration 40) 81.936%; (DRC-1, concentration 80) 83.5925%. Further, the “% inhibition apPOL 180'” value runs as follows: (DRC-1, concentration 2.5) -6.054%; (DRC-1, concentration 5) -2.934%; (DRC-1, concentration 10) 23.1917%; (DRC-1, concentration 20) 50.4837%; (DRC-1, concentration 40) 76.46%; (DRC-1, concentration 80) 83.9917%. In addition, the “% inhibition apPOL 180'” value (DRC-2, concentration 2.5) was -9%; the “% inhibition apPOL 180'” value (DRC-2, concentration 5) was 6.65%; the “% inhibition apPOL 180'” value (DRC-2, concentration 10) is reported as 35%; the “% inhibition apPOL 180'” value (DRC-2, concentration 20) was determined as 56%; the “% inhibition apPOL 180'” value (DRC-2, concentration 40) amounted to 67%; the “% inhibition apPOL 180'” value (DRC-2, concentration 80) came to 68%. Also, the “% inhibition Apo pol 5'” value reads like this: (DRC-2, concentration 2.5) -0.547%; (DRC-2, concentration 5) 14%; (DRC-2, concentration 10) 36%; (DRC-2, concentration 20) 42%; (DRC-2, concentration 40) 40%; (DRC-2, concentration 80) 31%. Further, the “% inhibition Apol 40'” value is, setting by setting: (DRC-2, concentration 2.5) -1.56%; (DRC-2, concentration 5) 18%; (DRC-2, concentration 10) 46%; (DRC-2, concentration 20) 60%; (DRC-2, concentration 40) 62%; (DRC-2, concentration 80) 57%. Besides, the “% inhibition ApPOL 90'” value by setting is: (DRC-2, concentration 2.5) -2%; (DRC-2, concentration 5) 15%; (DRC-2, concentration 10) 45%; (DRC-2, concentration 20) 61%; (DRC-2, concentration 40) 65%; (DRC-2, concentration 80) 63%. Also, the “DNA Pol” value under setting [1] is given as 43 and the “DNA Pol” value under setting [2] is 43.
Take `C#CC(C=CC)OC(=O)c1ccccc1C(=O)O` (stereo not drawn) [Molecule 61]: the IC50 amounted to 18.3 µM.
